Experimental data published in patent publication US20260014264A1, “SPECIFIC TOPOISOMERASE INHIBITOR, USE AS ANTIBODY DRUG CONJUGATE, AND PREPARATION METHOD THEREFOR” (BIOBRICS LIFE SCIENCE (NANTONG) CO., LTD., priority 2022, published 2026).

tested on: human non-small cell lung cancer cell line A549; assay: In vitro cytotoxicity test of released camptothecin analogs (Luminescent Cell Viability Assay); format: cell-based; conditions: A549, 120 h, read-out: IC50 (A549, nM)
Experimental: Stable transfection of high expression Her2, high expression SK-BR-3 and BT-474 human breast cancer cells, NCI-N87 human gastric cancer cells and human non-small cell lung cancer cell line A549 were selected as the cell lines for in vitro activity detection in this experiment, and the killing dose and effect of different antibody coupled drugs on cells were observed. Preliminary selection of plate density for each cell type: 2×10^3 cells/well, followed by cytotoxicity assay after 16-24 h; Next, the antibody coupled drug prepared in Example 2 was tested with a final concentration set at 5000 nM as the starting concentration, and a series of 10 concentrations (4-10 fold dilution) were designed for 5000-0.006 nM. […] The IC50 was calculated after reading the fluorescence data.
The linkers in the present invention are all cleavable linkers. Therefore, the released camptothecin analogs were first subjected to in vitro cytotoxic activity testing, and the results are shown in the table below.

Structure (SMILES) | IC50 [nM]
CC[C@@]1(O)C(=O)OCc2c1cc1n(c2=O)Cc2c-1nc1cc(F)c(NC(=O)CO)c3c1c2CCC3 [Compound A1-FD] | 69.1
CC[C@@]1(O)C(=O)OCc2c1cc1n(c2=O)Cc2c-1nc1cc(F)c(C)c3c1c2[C@@H](NC(=O)CO)CC3 [Dxd, reference compound] | 45.1

same assay, conditions: A549 cells, 120 hours, chemiluminescence cell viability, read-out: IC50 (A549)

Structure (SMILES) | IC50 [nM]
CC[C@@]1(O)C(=O)OCc2c1cc1n(c2=O)Cc2c-1nc1cc(F)c(NC(=O)C(C)O)c3c1c2CCC3 (stereo partly shown) [Compound A2-FD] | 0.53
CC[C@@]1(O)C(=O)OCc2c1cc1n(c2=O)Cc2c-1nc1cc(F)c(NC(=O)C(O)C3CC3)c3c1c2CCC3 (stereo partly shown) [Compound A3-FD] | 5.5
CC[C@@]1(O)C(=O)OCc2c1cc1n(c2=O)Cc2c-1nc1cc(F)c(NC(=O)C3CC3O)c3c1c2CCC3 (stereo partly shown) [Compound A9-FD] | 25.2
CC[C@@]1(O)C(=O)OCc2c1cc1n(c2=O)Cc2c-1nc1cc(F)c(NC(=O)C3CC(O)C3)c3c1c2CCC3 (stereo partly shown) [Compound A11-FD] | 2.1
CC[C@@]1(O)C(=O)OCc2c1cc1n(c2=O)Cc2c-1nc1ccc(NC(=O)CO)c3c1c2CCC3 [Compound A16-FD] | 79.5
